Source: PubChem BioAssay (NCI)
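Here, GI50 denotes the concentration required for 50% inhibition of growth. TGI: total growth inhibition.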

What was measured:
Test in all cases: DTP human tumour cell line panel, 384-well format
786-0 renal = tested on: 786-0 renal
A498 renal = tested on: A498 renal
A549 NSCLC = tested on: A549 NSCLC
ACHN renal = tested on: ACHN renal
BT-549 breast = tested on: BT-549 breast
CAKI-1 renal = tested on: CAKI-1 renal
CCRF-CEM leukemia = tested on: CCRF-CEM leukemia
COLO 205 colon = tested on: COLO 205 colon
DU-145 prostate = tested on: DU-145 prostate
EKVX NSCLC = tested on: EKVX NSCLC
HCC-2998 colon = tested on: HCC-2998 colon
HCT-116 colon = tested on: HCT-116 colon
HCT-15 colon = tested on: HCT-15 colon
HL-60(TB) leukemia = tested on: HL-60(TB) leukemia
HOP-62 NSCLC = tested on: HOP-62 NSCLC
HOP-92 NSCLC = tested on: HOP-92 NSCLC
HS 578T breast = tested on: HS 578T breast
HT29 colon = tested on: HT29 colon
IGROV1 ovarian = tested on: IGROV1 ovarian
K-562 leukemia = tested on: K-562 leukemia
KM12 colon = tested on: KM12 colon
LOX IMVI melanoma = tested on: LOX IMVI melanoma
M14 melanoma = tested on: M14 melanoma
MALME-3M melanoma = tested on: MALME-3M melanoma
MCF7 breast = tested on: MCF7 breast
MDA-MB-231 breast = tested on: MDA-MB-231 breast
MDA-MB-435 melanoma = tested on: MDA-MB-435 melanoma
MDA-MB-468 breast = tested on: MDA-MB-468 breast
MOLT-4 leukemia = tested on: MOLT-4 leukemia
NCI-H226 lung = tested on: NCI-H226 lung
NCI-H23 lung = tested on: NCI-H23 lung
NCI-H322M lung = tested on: NCI-H322M lung
NCI-H460 NSCLC = tested on: NCI-H460 NSCLC
NCI-H522 lung = tested on: NCI-H522 lung
NCI/ADR-RES ovarian = tested on: NCI/ADR-RES ovarian
OVCAR-3 ovarian = tested on: OVCAR-3 ovarian
OVCAR-4 ovarian = tested on: OVCAR-4 ovarian
OVCAR-8 ovarian = tested on: OVCAR-8 ovarian
PC-3 prostate = tested on: PC-3 prostate
RPMI-8226 leukemia = tested on: RPMI-8226 leukemia
RXF 393 renal = tested on: RXF 393 renal
SF-268 CNS = tested on: SF-268 CNS
SF-295 CNS = tested on: SF-295 CNS
SF-539 CNS = tested on: SF-539 CNS
SK-MEL-28 melanoma = tested on: SK-MEL-28 melanoma
SK-MEL-5 melanoma = tested on: SK-MEL-5 melanoma
SK-OV-3 ovarian = tested on: SK-OV-3 ovarian
SN12C renal = tested on: SN12C renal
SNB-19 CNS = tested on: SNB-19 CNS
SNB-75 CNS = tested on: SNB-75 CNS
SW-620 colon = tested on: SW-620 colon
T-47D breast = tested on: T-47D breast
TK-10 renal = tested on: TK-10 renal
U251 glioblastoma = tested on: U251 glioblastoma
UACC-257 melanoma = tested on: UACC-257 melanoma
UACC-62 melanoma = tested on: UACC-62 melanoma
UO-31 renal = tested on: UO-31 renal

CC1(C)OCCn2c1nc1c(N3CCOCC3)nc(-c3cnc(N)nc3)nc12
GI50 ([…]-0 renal): 1280 nM | TGI (786-0 renal): 9930 nM | GI50 (A498 renal): 314 nM | TGI (A498 renal): 2200 nM | GI50 (A549 NSCLC): 477 nM | TGI (A549 NSCLC): 6090 nM | GI50 (ACHN renal): 467 nM | TGI (ACHN renal): 6870 nM | GI50 (BT-549 breast): 799 nM | TGI (BT-549 breast): 5590 nM | GI50 (CAKI-1 renal): 279 nM | TGI (CAKI-1 renal): 2740 nM | GI50 (CCRF-CEM leukemia): 491 nM | TGI (CCRF-CEM leukemia): 7050 nM | GI50 (COLO 205 colon): 378 nM | TGI (COLO 205 colon): 9220 nM | GI50 (DU-145 prostate): 527 nM | TGI (DU-145 prostate): 9150 nM | GI50 (EKVX NSCLC): 519 nM | TGI (EKVX NSCLC): 4100 nM | GI50 (HCC-2998 colon): 885 nM | TGI (HCC-2998 colon): > 100000 nM | GI50 (HCT-116 colon): 545 nM | TGI (HCT-116 colon): > 100000 nM | GI50 (HCT-15 colon): 432 nM | TGI (HCT-15 colon): > 100000 nM | GI50 (HL-60(TB) leukemia): 153 nM | TGI (HL-60(TB) leukemia): 1910 nM | GI50 (HOP-62 NSCLC): 771 nM | TGI (HOP-62 NSCLC): > 100000 nM | GI50 (HOP-92 NSCLC): 385 nM | TGI (HOP-92 NSCLC): 2890 nM | GI50 (HS 578T breast): 275 nM | TGI (HS 578T breast): 1350 nM | GI50 (HT29 colon): 412 nM | TGI (HT29 colon): > 100000 nM | GI50 (IGROV1 ovarian): 158 nM | TGI (IGROV1 ovarian): 659 nM | GI50 (K-562 leukemia): 1950 nM | TGI (K-562 leukemia): > 100000 nM | GI50 (KM12 colon): 834 nM | TGI (KM12 colon): > 100000 nM | GI50 (LOX IMVI melanoma): 556 nM | TGI (LOX IMVI melanoma): 3440 nM | GI50 (M14 melanoma): 494 nM | TGI (M14 melanoma): > 100000 nM | GI50 (MALME-3M melanoma): 161 nM | TGI (MALME-3M melanoma): 749 nM | GI50 (MCF7 breast): 96.4 nM | TGI (MCF7 breast): > 100000 nM | GI50 (MDA-MB-231 breast): 584 nM | TGI (MDA-MB-231 breast): > 100000 nM | GI50 (MDA-MB-435 melanoma): 1230 nM | TGI (MDA-MB-435 melanoma): > 100000 nM | GI50 (MDA-MB-468 breast): 399 nM | TGI (MDA-MB-468 breast): 1780 nM | GI50 (MOLT-4 leukemia): 218 nM | TGI (MOLT-4 leukemia): 1200 nM | GI50 (NCI-H226 lung): 348 nM | TGI (NCI-H226 lung): 2900 nM | GI50 (NCI-H23 lung): 446 nM | TGI (NCI-H23 lung): > 100000 nM | GI50 (NCI-H322M lung): 458 nM | TGI (NCI-H322M lung): 8700 nM | GI50 (NCI-H460 NSCLC): 199 nM | TGI (NCI-H460 NSCLC): > 100000 nM | GI50 (NCI-H522 lung): 368 nM | TGI (NCI-H522 lung): > 100000 nM | GI50 (NCI/ADR-RES ovarian): 1770 nM | TGI (NCI/ADR-RES ovarian): > 100000 nM | GI50 (OVCAR-3 ovarian): 513 nM | TGI (OVCAR-3 ovarian): 7280 nM | GI50 (OVCAR-4 ovarian): 1040 nM | TGI (OVCAR-4 ovarian): 5790 nM | GI50 (OVCAR-8 ovarian): 742 nM | TGI (OVCAR-8 ovarian): > 100000 nM | GI50 (PC-3 prostate): 306 nM | TGI (PC-3 prostate): 6920 nM | GI50 (RPMI-8226 leukemia): 193 nM | TGI (RPMI-8226 leukemia): 667 nM | GI50 (RXF 393 renal): 758 nM | TGI (RXF 393 renal): 4420 nM | GI50 (SF-268 CNS): 1070 nM | TGI (SF-268 CNS): > 100000 nM | GI50 (SF-295 CNS): 316 nM | TGI (SF-295 CNS): 2020 nM | GI50 (SF-539 CNS): 1040 nM | TGI (SF-539 CNS): > 100000 nM | GI50 (SK-MEL-28 melanoma): 418 nM | TGI (SK-MEL-28 melanoma): 5420 nM | GI50 (SK-MEL-5 melanoma): 519 nM | TGI (SK-MEL-5 melanoma): 2560 nM | GI50 (SK-OV-3 ovarian): 199 nM | TGI (SK-OV-3 ovarian): 1200 nM | GI50 (SN12C renal): 389 nM | TGI (SN12C renal): 5490 nM | GI50 (SNB-19 CNS): 5610 nM | TGI (SNB-19 CNS): > 100000 nM | GI50 (SNB-75 CNS): 232 nM | TGI (SNB-75 CNS): 2270 nM | GI50 (SW-620 colon): 1600 nM | TGI (SW-620 colon): > 100000 nM | GI50 (T-47D breast): 128 nM | TGI (T-47D breast): 638 nM | GI50 (TK-10 renal): 412 nM | TGI (TK-10 renal): 3680 nM | GI50 (U251 glioblastoma): 2250 nM | TGI (U251 glioblastoma): > 100000 nM | GI50 (UACC-257 melanoma): 1830 nM | TGI (UACC-257 melanoma): > 100000 nM | GI50 (UACC-62 melanoma): 556 nM | TGI (UACC-62 melanoma): 2980 nM | GI50 (UO-31 renal): 416 nM | TGI (UO-31 renal): > 100000 nM
